Results taken from patent publication US20240043473A1, “NOOTROPIC PEPTIDES FOR TREATING LYSOSOMAL STORAGE DISEASES” (Phoenix Nest Inc., priority 2021, published 2024).
Entries after “also recorded” stand apart in the source; their conditions may differ. No end group written: not given here.

System: primary hippocampal neurons of Hgsnat^P304L mice
Assay: Synaptic protein markers and BDNF in primary hippocampal neuronal cultures (immunocytochemistry)
Assay type: cell-based, mouse
Settings: 10 μM in culture media
Experimental: Model and Developmental time points: Primary hippocampal neuronal cultures established from E16 embryos of […] mice.
Method: The hippocampal neurons were cultured until DIV (Day In Vitro) 21 and 50% of media was changed every 3 days. AVP6 at a final concentration of 10 μM was added to the media when plating and during every media change. At DIV21 neurons were fixed and analysed by immunohistochemistry using markers of dendrites (MAP), axons (neurofilament protein, NF-H), and synaptic transmission (PSD95 and BDNF). Synaptic spine architecture and additional protein synaptic markers (Vglut/PSD95 and VAMP) will be studied.
Primary hippocampal neurons were cultured from the brains of embryo at gestational day 16 (E16). The hippocampi were isolated and treated with 2.5% trypsin solution (Sigma-Aldrich, T4674) for 15 min at 37° C. The cells were washed 3 times with Hank's Balanced Salt Solution (HBSS, Gibco, 14025-092) and mechanically dissociated by pipetting, using glass Pasteur pipettes with 3 different opening sizes (3, 2 and 1 mm). Then, they were counted with the viability dye trypan blue (ThermoFisher Scientific, 15250061), using a hemocytometer, and resuspended in Neurohasal media (Gibco, 21103-049) containing L-glutamine, B27, N2, penicillin and streptomycin. […]
Cultured mouse neurons at day in vitro (DIV) 21 or iPSC-derived neurons at D1V21 and DIV28 were fixed in 4% paraformaldehyde and 4% sucrose solution in PBS, pH 7.4, for 20 min. […] Coverslips were washed 3 times again in PBS and mounted on slides using ProLong Gold mounting medium, containing 4′,6-dianiidino-2-phenylindole (DAPI; Invitrogen, Cat #P36935), and analyzed by a Leica SP8-DSL or Leica TCS SPE confocal microscopes (×63 glycerol immersion objectives, N.A. 1.4). Images were processed with Leica Application Suite X (LAS-X) software or Photoshop 2021 (Adobe) and quantified using Fiji-ImageJ 1.50i software (National Institutes of Health, Bethesda, MD, USA). […] Soma or axon areas were defined by TUBB3, NEUN, or NF-M staining and, within this area, the appropriate markers were measured establishing a threshold. […]

[1] = DIV21, Hgsnat^P311L (P304L) neurons

In the case of “AVP6: N-terminally acetylated Semax, a nootropic peptide having the amino acid sequence of MEHFPGP (SEQ ID NO:1) (Ac-MEHFPGP)”, the “Synapsin 1-positive puncta” value [1] is reported as “increase in Synapsin 1-positive puncta; also recorded: rescues deficit of both proteins”, the “number of BDNF-positive punctae” value [1] is reported as “increase in the number of BDNF-positive punctae; also recorded: rescues deficit of both proteins” and the “levels of VGLUT1+, PSD-95+, SYN1+ and BDNF+ puncta” value (Hgsnat^P304L neurons) is reported as “rescues reduced levels of synaptic markers; also recorded: significantly increased”.
